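All cell lines were grown in 96-well plates and treated with compound for 48 hours. TGI is the concentration that stops growth completely.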
Experiments:
Test in all cases: growth of human tumour cells (NCI), 48 h
[1] = system: 786-0 renal
[2] = system: A498 renal
[3] = system: A549 NSCLC
[4] = system: ACHN renal
[5] = system: BT-549 breast
[6] = system: CAKI-1 renal
[7] = system: CCRF-CEM leukemia
[8] = system: COLO 205 colon
[9] = system: DU-145 prostate
[10] = system: EKVX NSCLC
[11] = system: HCC-2998 colon
[12] = system: HCT-116 colon
[13] = system: HCT-15 colon
[14] = system: HOP-62 NSCLC
[15] = system: HOP-92 NSCLC
[16] = system: HS 578T breast
[17] = system: HT29 colon
[18] = system: IGROV1 ovarian
[19] = system: K-562 leukemia
[20] = system: KM12 colon
[21] = system: LOX IMVI melanoma
[22] = system: M14 melanoma
[23] = system: MALME-3M melanoma
[24] = system: MCF7 breast
[25] = system: MDA-MB-231 breast
[26] = system: MDA-MB-435
[27] = system: MDA-N
[28] = system: MOLT-4 leukemia
[29] = system: NCI-H226 lung
[30] = system: NCI-H23 lung
[31] = system: NCI-H460 lung
[32] = system: NCI-H522 lung
[33] = system: NCI/ADR-RES ovarian
[34] = system: OVCAR-3 ovarian
[35] = system: OVCAR-4 ovarian
[36] = system: OVCAR-5 ovarian
[37] = system: OVCAR-8 ovarian
[38] = system: PC-3 prostate
[39] = system: RPMI-8226 leukemia
[40] = system: RXF 393 renal
[41] = system: SF-268 CNS
[42] = system: SF-295 CNS
[43] = system: SF-539 CNS
[44] = system: SK-MEL-2 melanoma
[45] = system: SK-MEL-28 melanoma
[46] = system: SK-MEL-5 melanoma
[47] = system: SN12C renal
[48] = system: SNB-19 CNS
[49] = system: SNB-75 CNS
[50] = system: SR leukemia
[51] = system: SW-620 colon
[52] = system: TK-10 renal
[53] = system: U251 CNS
[54] = system: UACC-257 melanoma
[55] = system: UACC-62 melanoma
[56] = system: UO-31 renal
[57] = system: HL-60(TB) leukemia
[58] = system: SK-OV-3 ovarian

O=C1C=CC2(C=C1)CCC(=O)O2 was tested, and the TGI [1] was 31 µM, the TGI [2] was > 100 µM and the TGI [3] was 44.1 µM. It also gave a TGI [4] of 34.2 µM, a TGI [5] of 46.3 µM and a TGI [6] of 18.2 µM. It also gave a TGI [7] of 25.3 µM, a TGI [8] of 23.1 µM and a TGI [9] of 31.5 µM. For the same molecule, the TGI [10] was 43.8 µM, the TGI [11] was 27.2 µM and the TGI [12] was 28 µM. It also gave a TGI [13] of 54.3 µM, a TGI [14] of 38.2 µM and a TGI [15] of 26.6 µM. The TGI [16] was > 100 µM, the TGI [17] was > 100 µM and the TGI [18] was 28.5 µM. For the same molecule, the TGI [19] was > 100 µM, the TGI [20] was 29.9 µM and the TGI [21] was 20.9 µM. The TGI [22] was > 100 µM, the TGI [23] was 19.6 µM and the TGI [24] was 34.5 µM. The TGI [25] was 23.9 µM, the TGI [26] was 29.6 µM and the TGI [27] was > 100 µM. For the same molecule, the TGI [28] was > 100 µM, the TGI [29] was > 100 µM and the TGI [30] was 43.9 µM. For the same molecule, the TGI [31] was 30.7 µM, the TGI [32] was 5.4 µM and the TGI [33] was > 100 µM. The TGI [34] was 28.9 µM, the TGI [35] was 29.9 µM and the TGI [36] was 46 µM. For the same molecule, the TGI [37] was > 100 µM, the TGI [38] was 27.1 µM and the TGI [39] was 23.7 µM. The TGI [40] was 28.3 µM, the TGI [41] was 51.6 µM and the TGI [42] was 46.4 µM. For the same molecule, the TGI [43] was 76.8 µM, the TGI [44] was 36.6 µM and the TGI [45] was > 100 µM. It also gave a TGI [46] of 29.8 µM, a TGI [47] of 34.5 µM and a TGI [48] of 37.4 µM. For the same molecule, the TGI [49] was 39.1 µM, the TGI [50] was > 100 µM and the TGI [51] was 37.5 µM. For the same molecule, the TGI [52] was 24.2 µM, the TGI [53] was 23.1 µM and the TGI [54] was 80.2 µM. The TGI [55] was 37.4 µM and the TGI [56] was 31.2 µM.

With COc1nc(SC)nc2c1C(O)n1c(nc3ccccc31)S2 (stereo not drawn) the TGI [1] was 24.6 µM, the TGI [2] was 39.4 µM and the TGI [3] was > 100 µM. The TGI [4] was 39.9 µM, the TGI [5] was > 100 µM and the TGI [6] was > 100 µM. The TGI [7] was 22.3 µM, the TGI [9] was > 100 µM and the TGI [10] was > 100 µM. The TGI [11] was > 100 µM, the TGI [12] was 30.4 µM and the TGI [13] was > 100 µM. For the same molecule, the TGI [57] was 60.5 µM, the TGI [14] was 37.4 µM and the TGI [15] was 61.9 µM. The TGI [16] was 50.7 µM, the TGI [17] was > 100 µM and the TGI [18] was > 100 µM. The TGI [19] was > 100 µM, the TGI [20] was > 100 µM and the TGI [21] was > 100 µM. For the same molecule, the TGI [22] was > 100 µM, the TGI [23] was > 100 µM and the TGI [24] was 91.2 µM. The TGI [25] was > 100 µM, the TGI [26] was > 100 µM and the TGI [27] was > 100 µM. For the same molecule, the TGI [28] was > 100 µM, the TGI [30] was 95.4 µM and the TGI [31] was > 100 µM. It also gave a TGI [32] of 69.1 µM, a TGI [33] of 94.9 µM and a TGI [34] of 85.7 µM. For the same molecule, the TGI [35] was 44.4 µM, the TGI [36] was > 100 µM and the TGI [37] was 80.9 µM. For the same molecule, the TGI [38] was > 100 µM, the TGI [39] was > 100 µM and the TGI [41] was > 100 µM. The TGI [42] was 59.6 µM, the TGI [44] was > 100 µM and the TGI [45] was > 100 µM. For the same molecule, the TGI [58] was 67.2 µM, the TGI [47] was > 100 µM and the TGI [48] was > 100 µM. For the same molecule, the TGI [50] was > 100 µM, the TGI [51] was 47.7 µM and the TGI [52] was 97.7 µM. The TGI [53] was 96.8 µM, the TGI [54] was > 100 µM and the TGI [55] was 44.7 µM. The TGI [56] was 16.8 µM.

— PubChem BioAssay (NCI)
